The values below come from paper PMC3116189, “Novel Natural Inhibitors of CYP1A2 Identified by in Silico and in Vitro Screening” (International Journal of Molecular Sciences, 2011).

Structures are written as SMILES. Counter-ions that a name gives are not always drawn.
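Further: recombinant CYP1A2 incubated for 1 h at 37 °C, with the reaction started by an NADPH-generating system.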

In the first series the target is T1, CYP1A2 (Homo sapiens, UniProt P05177).
T1 sequence (P05177 1-516): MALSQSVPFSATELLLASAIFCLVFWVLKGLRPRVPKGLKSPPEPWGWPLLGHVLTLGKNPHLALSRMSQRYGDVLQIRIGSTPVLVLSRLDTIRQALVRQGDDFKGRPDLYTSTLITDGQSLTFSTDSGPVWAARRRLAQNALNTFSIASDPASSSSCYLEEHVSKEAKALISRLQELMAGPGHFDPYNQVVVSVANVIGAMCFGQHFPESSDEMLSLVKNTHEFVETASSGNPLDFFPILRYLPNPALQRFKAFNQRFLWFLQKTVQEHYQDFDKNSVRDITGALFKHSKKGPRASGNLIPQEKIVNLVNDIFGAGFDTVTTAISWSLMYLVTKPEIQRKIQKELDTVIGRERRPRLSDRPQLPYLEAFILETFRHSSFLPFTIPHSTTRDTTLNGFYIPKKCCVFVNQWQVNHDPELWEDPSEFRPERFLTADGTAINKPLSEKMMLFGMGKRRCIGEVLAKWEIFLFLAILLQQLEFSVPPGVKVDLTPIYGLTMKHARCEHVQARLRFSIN
The series is described as follows: in vitro. In kind it is biochemical. The following applies: 1 μM active ingredient, Rh CYP1A2-mediated phenacetin O-deethylation, test dataset of 202 herb ingredients.
As to `COc1c2c(cc3oc(C)cc(=O)c13)OC(C(C)(C)O[C@@H]1O[C@H](CO)[C@@H](O)[C@H](O)[C@H]1O)C2` (stereo partly shown) [5-O-Methylvisammioside], the “% of Control Indication Activity (Mean)” value is above 90%.
Still for that read-out and setting: next, `Oc1cc(O)c2c(c1)O[C@H](c1ccc(O)c(O)c1)[C@@H](O)C2` [(+)-Catechin]: above 90%; `C=C1C(=O)O[C@@H]2C[C@@]3(C)CCC[C@H](C)C3=C[C@H]12` [Alantolactone]: above 90%.
For `O=C1CCC[C@@H]2[C@H]3CCC[N@+]4([O-])CCC[C@@H](CN12)[C@@H]34` [Ammothamnine], the “% of Control Indication Activity (Mean)” value is on record as above 90%.
Still for that read-out and setting: as for `CC(=O)O[C@H]1C[C@]2(O)[C@@H]3CC[C@@H]4C[C@@H](O)CC[C@]4(C)[C@H]3CC[C@]2(C)[C@H]1c1ccc(=O)oc1` [Bufatalin], the figure is above 90%; as for `CCOC(=O)/C=C/c1ccc(O)c(O)c1` [Caffeic acid ethyl ester], above 90%; as for `COc1cc(O)cc(O)c1C(=O)/C=C/c1ccccc1` [Cardamonin], above 90%.
Same read-out and setting: as for `COc1cc2c(c(OC)c1OC)-c1c(cc(OC)c(OC)c1OC)C[C@H](C)[C@H](C)C2` [Deoxyschizandrin], the figure is above 90%; as for `COc1cc(/C=C/C(=O)O)ccc1O` [Ferulic acid], above 90%; as for `COc1ccc([C@H]2OC[C@H]3[C@@H]2CO[C@H]3c2ccc(O[C@@H]3O[C@H](CO)[C@@H](O)[C@H](O)[C@H]3O)c(OC)c2)cc1OC` [Forsythin], above 90%.

Still in this series, the particulars now being: human, recombinant enzyme, pH 7.4.
For `O=Cc1ccc(O)c(O)c1` [3,4-Dihydroxybenzaldehyde], the activity at 1 h, 1 μM was above 90%.
On the same count and under the same terms, next, `O=C1c2cccc(O)c2C(=O)c2c(O)cc(CO)cc21` [Aloe-emodin]: above 90%; `O=c1cc(-c2ccccc2)oc2cc(O)c(O)c(O)c12` [Baicalein]: above 90%.
For `O=C(O)[C@H]1O[C@@H](Oc2cc3oc(-c4ccccc4)cc(=O)c3c(O)c2O)[C@H](O)[C@@H](O)[C@@H]1O` [Baicalin], the activity at 1 h, 1 μM is above 90%.
On the same count and under the same terms, next, `O=c1cc(-c2ccccc2)oc2cc(O)cc(O)c12` [Chrysin]: 4.6%.
As for `Cc1cc(O)c2c(c1)C(=O)c1cccc(O)c1C2=O` [Chrysophanol], the activity at 1 h, 1 μM came out at 77.7%.
Still for that read-out and setting: next, `O=C/C=C/c1ccccc1` [Cinnamaldehyde]: above 90%; `O=C(O)/C=C/c1ccccc1` [Cinnamic acid]: above 90%.
Same read-out and setting: as for `O=c1c(-c2ccc(O)cc2)coc2cc(O)ccc12` [Daidzein], the figure is above 90%.
Consider `C=C1CC[C@H]2C(=C)CC[C@H]3C(=C)C(=O)O[C@@H]3[C@@H]12` [Dehydrocostus lactone], for which the activity at 1 h, 1 μM was above 90%.
For the compound `Cc1cc(O)c2c(c1)C(=O)c1cc(O)cc(O)c1C2=O` [Emodin], the activity at 1 h, 1 μM was above 90%.
For `O=c1ccc2cc(O)c(O)cc2o1` [Esculetin], the activity at 1 h, 1 μM is above 90%.
As to `O=C(O)c1cc(O)c(O)c(O)c1` [Gallic acid], the activity at 1 h, 1 μM was above 90%.

Staying with this series, now noted: human, recombinant enzyme, pH 7.4; 1 μM active ingredient, Rh CYP1A2-mediated phenacetin O-deethylation, test dataset of 202 herb ingredients; read-out: % of Control Indication Activity (Mean).
`C=CCc1ccc(O)c(OC)c1` [Eugenol]: the activity at 1 h, 1 μM is above 90%.
In the case of `COc1ccc2cc1Oc1ccc(cc1)C[C@H]1c3cc(c(OC)cc3CCN1C)Oc1c(O)c(OC)cc3c1[C@H](C2)N(C)CC3` [Fangchinoline], the activity at 1 h, 1 μM was above 90%.

The series is the same for the next values; noted with them: human, recombinant human CYP1A2, pH 7.4, probe phenacetin (25 μM), O-deethylation to acetaminophen; 1 μM active ingredient, Rh CYP1A2-mediated phenacetin O-deethylation, test dataset of 202 herb ingredients; read-out: % of Control Indication Activity (Mean).
With `COc1ccc(C=O)c(O)c1` [4-Methoxysalicylaldehyde], the activity at 1 h, 1 μM was above 90%.
Take `O=Cc1ccc(CO)o1` [5-Hydroxymethylfurfural]: the activity at 1 h, 1 μM is above 90%.
On the same count and under the same terms, as for `Oc1cc(O)c2c(c1)O[C@H](c1ccc(O)c(O)c1)[C@H](O)C2` [(−)-Epicatechin], the figure is above 90%.
As to `COc1cc(O)cc2c1C(=O)C[C@@H](c1ccccc1)O2` [Alpinetin], the activity at 1 h, 1 μM is above 90%.
Still for that read-out and setting: as for `C=C1CC[C@@H]2[C@](C)(CO)[C@H](O)CC[C@@]2(C)[C@@H]1C/C=C1/C(=O)OC[C@H]1O` [Andrographolide], the figure is above 90%; as for `COc1ccc(C[C@H]2COC(=O)[C@@H]2Cc2ccc(O[C@@H]3O[C@H](CO)[C@@H](O)[C@H](O)[C@H]3O)c(OC)c2)cc1OC` [Arctiin], above 90%.
Regarding `O=C1c2c(O)cccc2C([C@@H]2O[C@H](CO)[C@@H](O)[C@H](O)[C@H]2O)c2cc(CO)cc(O)c21` (stereo partly shown) [Bar baloin], the activity at 1 h, 1 μM was above 90%.
Same read-out and setting: next, `COc1ccc2cc3[n+](cc2c1OC)CCc1cc2c(cc1-3)OCO2` [Berberine Hydrochloride]: above 90%; `COc1c(O)cc2c(c1O)[C@@H]1O[C@H](CO)[C@@H](O)[C@H](O)[C@H]1OC2=O` [Bergenin]: above 90%; `C[N+](C)(C)CC(=O)O` [Betaine]: above 90%.
With `CC(=O)OC1CC2CCC1(C)C2(C)C` (stereo not shown) [Bornylacetate], the activity at 1 h, 1 μM was above 90%.
As to `O=C(O)/C=C/c1ccc(O)c(O)c1` [Caffeic acid], the activity at 1 h, 1 μM is above 90%.
Same read-out and setting: as for `Cc1ccc(C(C)C)cc1O` [Carvacrol], the figure is above 90%.
On the same count and under the same terms, as for `OC[C@H]1O[C@@H](O[C@@H]2OC=C[C@H]3[C@H](O)[C@@H]4O[C@]4(CO)[C@@H]23)[C@H](O)[C@@H](O)[C@@H]1O` [Catalpo l], the figure is above 90%; as for `O=C(/C=C/c1ccc(O)c(O)c1)O[C@@H]1C[C@](O)(C(=O)O)C[C@@H](O)[C@H]1O` [Chlorogenic acid], above 90%.
On to `C=C1C(=O)O[C@@H]2/C=C(\C)CC/C=C(\C)CC[C@@H]12` [Costunolide], for which the activity at 1 h, 1 μM is above 90%.
For the compound `COc1cc(/C=C/C(=O)CC(=O)/C=C/c2ccc(O)c(OC)c2)ccc1O` [Curcumin], the activity at 1 h, 1 μM was above 90%.
On the same count and under the same terms, as for `COc1c2ccc(-c3ccccc3)oc-2cc(=O)c1C` [Dracorhodin], the figure is 21.1%; as for `CC12CCC(CC1)C(C)(C)O2` [Eucalyptol], above 90%.
Regarding `COc1ccc(-c2coc3cc(O)ccc3c2=O)cc1` [Formononetin], the activity at 1 h, 1 μM was above 90%.
In the case of `COc1cc2ccc(=O)oc2c(O)c1O` [Fraxetin], the activity at 1 h, 1 μM is above 90%.
Turning to `CC1=C2C(=O)O[C@@H](c3ccoc3)[C@]2(C)CCC1` [Fraxinellone], the activity at 1 h, 1 μM is above 90%.

The same series, now with this note: human, recombinant human CYP1A2, pH 7.4, probe phenacetin (25 μM), O-deethylation to acetaminophen; 1 μM test compound, 25 μM phenacetin, average of duplicate determinations; read-out: % of Control Indication Activity.
With `COc1cc(C(O)C(CO)Oc2ccc(/C=C\CO)cc2OC)ccc1O` (single isomer, unassigned; (-)) [zhang 779, (−)-Threo-guaiacylglycerol-8-O-4′-(coniferyl alcohol) ether], the activity at 1 h, 1 μM was above 90%.

Staying with this series, now noted: recombinant enzyme.
In the case of `C=C1CC[C@@H]2[C@](C)(CO)[C@H](O)CC[C@@]2(C)[C@@H]1/C=C/C1=CCOC1=O` [Dehydroandrographolide], the “% of Control Indication Activity (Mean)” value was above 90.

Still in this series, the particulars now being: recombinant enzyme, pH 7.4.
Turning to `CN1[C@@H]2CC[C@H]1C[C@@H](OC(=O)C(CO)c1ccccc1)C2` (stereo partly shown) [Atropine Sulfate], the activity is above 90%.
Same read-out and setting: next, `CN[C@@H](C)[C@H](O)c1ccccc1` [Ephedrine]: above 90%.

Still in this series, the particulars now being: recombinant enzyme, pH 7.4; 1 μM active ingredient, Rh CYP1A2-mediated phenacetin O-deethylation, test dataset of 202 herb ingredients; read-out: % of Control Indication Activity (Mean).
For `CCN1C[C@]2(COC)[C@H](O)C[C@H](OC)[C@@]34[C@@H]5C[C@@]6(O)[C@H](OC(=O)c7ccccc7)[C@@H]5[C@@](OC(C)=O)([C@@H]([C@H](OC)[C@H]23)[C@@H]14)[C@@H](O)[C@@H]6OC` [Aconitine], the activity at 1 h, 1 μM is above 90%.
As for `N#C[C@H](O[C@@H]1O[C@H](CO[C@@H]2O[C@H](CO)[C@@H](O)[C@H](O)[C@H]2O)[C@@H](O)[C@H](O)[C@H]1O)c1ccccc1` [Amygdalin], the activity is above 90%.
The same measure, in the same setting: next, `COc1ccc(C=O)cc1` [Anisaldehyde]: above 90%.
On the same count and under the same terms, next, `COC(=O)C1=CCCN(C)C1` [Arecoline]: above 90%.
Take `COc1cccc2c1cc([N+](=O)[O-])c1c(C(=O)O)cc3c(c12)OCO3` [Aristolochic Acid]: the activity at 1 h, 1 μM is above 90%.
On the same count and under the same terms, next, `CC(C)(C)[C@]1(O)CC2OC(=O)CC23C(=O)OC2OC(=O)[C@H](O)C231` (stereo partly shown) [Bilobalide]: above 90%.
In the case of `C[C@@]12C(=O)OC(=O)[C@]1(C)[C@H]1CC[C@@H]2O1` [Cantharidin], the activity at 1 h, 1 μM was above 90%.
Still for that read-out and setting: as for `CC1=C2C[C@H]3[C@@H](CC=C4C[C@@H](O)CC[C@@]43C)[C@@H]2CC[C@]12O[C@@H]1C[C@H](C)CN[C@H]1[C@H]2C` [Cyclopamine], the figure is above 90%.
As for `OCc1ccc(O[C@@H]2O[C@H](CO)[C@@H](O)[C@H](O)[C@H]2O)cc1` [Gastrodin], the activity was above 90%.
`COC(=O)C1=CO[C@@H](O[C@@H]2O[C@H](CO)[C@@H](O)[C@H](O)[C@H]2O)[C@@H]2C(CO)=CC[C@H]12` [Geniposide]: the activity is above 90%.
